Assay results as given in patent publication US20250002846A1, “METHOD FOR CONSTRUCTION OF INNER EAR ORGANOID” (INDUSTRY FOUNDATION OF CHONNAM NATIONAL UNIVERSITY, priority 2022, published 2025).

Assays:
[1] = system: U-IEO-derived hair cell-like cells; experiment: Patch clamp of hair cell-like cells from U well plate inner ear organoids, with or without cisplatin; assay type: cell-based, mouse
Description: (§1) A 10 mV nominal increment was made at the holding potential of −84 mV covering the range of −124 to +54 mV for a duration of […], before returning to a constant potential of −44 mV (tail current, 50 ms). The bath solution was prepared using L-15 media (Gibco) and the pipette solution was prepared using 150 mM KCl, 5 mM HEPES, 0.1 mM CaCl2, 5 mM EGTA, 3.5 mM Mg ATP, pH 7.3 (KOH), and Osmolality 288 mmol/kg. To obtain damaged IEO, IEO was treated with […] of cisplatin on day 30 for 48 hours (100 mg cisplatin/0.33 mL (D. W) a 3 μL cisplatin +20 mL medium). To apply the IEO for patch clamp, the IEO was treated with trypsin for 5 minutes and the detached cells were detected with a patch pipette (n=4). Whole cells of IEO-derived hair cell-like cells were subjected to close-seal technique, in order to compare the electrophysiology of IEOS formed in microhole chips (hereinafter “M-IEO”) and IEOs formed in U well plates (hereinafter “U-IEO”) using patch clamp assays (FIG. 5A). In the 3D structure of the IEO, cells were isolated using single cell trypsinization. First, the morphology of mouse organs of Corti hair cells, mESC (R1/E), and IEO-derived hair cell-like cells was confirmed (FIG. 5B). […]

[2] = system: M-IEO-derived hair cell-like cells; experiment: Patch clamp of hair cell-like cells from microhole chip inner ear organoids, with or without cisplatin; assay type: cell-based, mouse; details: 68 pA−20 pA at 60 mV (so in the source)
Description: as §1

## N.N.[Cl][Pt][Cl] [cisplatin]
[1]; 3-day culture with or without cisplatin
  electrophysiology after culture with cisplatin: significantly reduced electrophysiology
[1]; U-IEO, 138 pA−28 pA (so in the source)
  loss of current, without versus with cisplatin: 110 pA
[2]
  loss of current, without versus with cisplatin: 48 pA
